{"source": "patent US20040202647A1", "about": "“Compositions and methods related to nitrotyrosine - containing compounds as antigenic agents” (priority 2002, published 2004)", "tested_on": "splenocytes from naïve C57BI/6 mice", "assay_type": "cell-based", "settings": "naïve splenocytes plus RMA-S pulsed with 10 uM peptide, IL-2 added after 4 days", "note": "Read-outs that look alike come from different tables or passages of the source."}
{"sequence": "KAVYNFATM [non-nitrated LCMV gp33 peptide]", "values": [{"measurement": "outgrowth of CD8^+ T cells", "result": "not"}, {"measurement": "outgrowth of CD8^+ T cells", "setting": "listed as conventional gp33-41 peptide", "result": "not observed"}]}
